Test results reported in patent publication US8835378B2, “Multi-domain amphipathic helical peptides and methods of their use” (The United States of America as represented by the …, priority 2004, dated 2014).
Where a SMILES comes first, the peptide text is derived from it.

What was measured:
red blood cells = assay: Red blood cell hemolysis assay; type: cell-based; conditions: 1 hour at 37° C.
Method: Red blood cells were incubated with the indicated concentration of the peptides for 1 hour at 37° C. Results are expressed as the mean of triplicates±1 SD.
Approximately 25% of the red blood cells were lysed after 1 hour at the maximum dose tested (FIG. 9). Overall, the modified peptides containing the Ala substitutions were less cytotoxic, and the degree of cytotoxicity closely correlated with the number of Ala substitutions.

[1] = tested on: HeLa cells stably transfected with human ABCA1 cDNA (ABCA1 cells); assay: Cholesterol and phospholipid efflux from ABCA1 transfected cells; type: cell-based; conditions: for cholesterol efflux to other detergents compared with taurodeoxycholate: sublytic concentrations, ABCA1 cells and control cells; for cholesterol and phospholipid efflux from ABCA1 cells (in words): 18 hours
Method: (§1) Percentage efflux was calculated after subtracting the radioactive counts in the blank media (αMEM plus 1 mg/ml of BSA), and expressed as the percent of total radioactive counts removed from the cells during the efflux period.
(§2) Cell fixation was performed by a 10 minute treatment with 3% paraformaldehyde in phosphate buffered saline (PBS), followed by three washes with blank media. Lactate dehydrogenase (LDH) release from cells into the media was measured enzymatically (Roche Diagnostics, Indianapolis, Ind.) and expressed, after subtraction of LDH released into blank media, as the percentage of total cell LDH. Total cell LDH was determined after cell solubilization with 1% Triton X-100.

[2] = tested on: HeLa cells transfected with only a hygromycin-resistant control plasmid (control cells); assay: Cholesterol and phospholipid efflux from control cells; type: cell-based, human; conditions: for cholesterol and phospholipid efflux from control cells (in words): 18 hours
Method: as §1, §2

[3] = tested on: ABCA1 cells and control cells; assay: Cell morphology by light microscopy during efflux experiments; type: cell-based, human; conditions: light microscopy, during efflux experiments

CC(C)C[C@H](NC(=O)[C@H](Cc1c[nH]c2ccccc12)NC(=O)[C@H](CC(=O)O)NC(=O)[C@@H]1CCCN1C(=O)[C@H](Cc1ccccc1)NC(=O)[C@H](C)NC(=O)[C@H](CCC(=O)O)NC(=O)[C@H](CCCCN)NC(=O)[C@H](CC(C)C)NC(=O)[C@H](CCCCN)NC(=O)[C@H](CCC(=O)O)NC(=O)[C@H](C)NC(=O)[C@@H](NC(=O)[C@H](CCCCN)NC(=O)[C@H](CC(=O)O)NC(=O)[C@H](Cc1ccc(O)cc1)NC(=O)[C@H](Cc1ccccc1)NC(=O)[C@H](C)NC(=O)[C@H](CCCCN)NC(=O)[C@H](CC(C)C)NC(=O)[C@H](Cc1c[nH]c2ccccc12)NC(=O)[C@@H](N)CC(=O)O)C(C)C)C(=O)N[C@@H](CCCCN)C(=O)N[C@@H](C)C(=O)N[C@@H](Cc1ccccc1)C(=O)N[C@@H](Cc1ccc(O)cc1)C(=O)N[C@@H](CC(=O)O)C(=O)N[C@@H](CCCCN)C(=O)N[C@H](C(=O)N[C@@H](C)C(=O)N[C@@H](CCC(=O)O)C(=O)N[C@@H](CCCCN)C(=O)N[C@@H](C)C(=O)N[C@@H](CCCCN)C(=O)N[C@@H](CCC(=O)O)C(=O)N[C@@H](C)C(=O)N[C@@H](Cc1ccccc1)C(=O)O)C(C)C [1A] (H-DWLKAFYDKVAEKLKEAFPDWLKAFYDKVAEKAKEAF-OH; N-terminus and C-terminus assumed)
hemolysis / cytotoxicity to red blood cells (in words) (red blood cells): moderate degree of hemolysis

CC(C)C[C@H](NC(=O)[C@H](Cc1c[nH]c2ccccc12)NC(=O)[C@H](CC(=O)O)NC(=O)[C@@H]1CCCN1C(=O)[C@H](Cc1ccccc1)NC(=O)[C@H](C)NC(=O)[C@H](CCC(=O)O)NC(=O)[C@H](CCCCN)NC(=O)[C@H](CC(C)C)NC(=O)[C@H](CCCCN)NC(=O)[C@H](CCC(=O)O)NC(=O)[C@H](C)NC(=O)[C@@H](NC(=O)[C@H](CCCCN)NC(=O)[C@H](CC(=O)O)NC(=O)[C@H](Cc1ccc(O)cc1)NC(=O)[C@H](Cc1ccccc1)NC(=O)[C@H](C)NC(=O)[C@H](CCCCN)NC(=O)[C@H](CC(C)C)NC(=O)[C@H](Cc1c[nH]c2ccccc12)NC(=O)[C@@H](N)CC(=O)O)C(C)C)C(=O)N[C@@H](CCCCN)C(=O)N[C@@H](C)C(=O)N[C@@H](Cc1ccccc1)C(=O)N[C@@H](Cc1ccc(O)cc1)C(=O)N[C@@H](CC(=O)O)C(=O)N[C@@H](CCCCN)C(=O)N[C@H](C(=O)N[C@@H](C)C(=O)N[C@@H](CCC(=O)O)C(=O)N[C@@H](CCCCN)C(=O)N[C@@H](C)C(=O)N[C@@H](CCCCN)C(=O)N[C@@H](CCC(=O)O)C(=O)N[C@@H](C)C(=O)N[C@@H](C)C(=O)O)C(C)C [2A] (H-DWLKAFYDKVAEKLKEAFPDWLKAFYDKVAEKAKEAA-OH; N-terminus and C-terminus assumed)
hemolysis / cytotoxicity to red blood cells (in words) (red blood cells): moderate degree of hemolysis

CC(C)C[C@H](NC(=O)[C@H](Cc1c[nH]c2ccccc12)NC(=O)[C@H](CC(=O)O)NC(=O)[C@@H]1CCCN1C(=O)[C@H](Cc1ccccc1)NC(=O)[C@H](C)NC(=O)[C@H](CCC(=O)O)NC(=O)[C@H](CCCCN)NC(=O)[C@H](CC(C)C)NC(=O)[C@H](CCCCN)NC(=O)[C@H](CCC(=O)O)NC(=O)[C@H](C)NC(=O)[C@@H](NC(=O)[C@H](CCCCN)NC(=O)[C@H](CC(=O)O)NC(=O)[C@H](Cc1ccc(O)cc1)NC(=O)[C@H](Cc1ccccc1)NC(=O)[C@H](C)NC(=O)[C@H](CCCCN)NC(=O)[C@H](CC(C)C)NC(=O)[C@H](Cc1c[nH]c2ccccc12)NC(=O)[C@@H](N)CC(=O)O)C(C)C)C(=O)N[C@@H](CCCCN)C(=O)N[C@@H](C)C(=O)N[C@@H](C)C(=O)N[C@@H](Cc1ccc(O)cc1)C(=O)N[C@@H](CC(=O)O)C(=O)N[C@@H](CCCCN)C(=O)N[C@H](C(=O)N[C@@H](C)C(=O)N[C@@H](CCC(=O)O)C(=O)N[C@@H](CCCCN)C(=O)N[C@@H](C)C(=O)N[C@@H](CCCCN)C(=O)N[C@@H](CCC(=O)O)C(=O)N[C@@H](C)C(=O)N[C@@H](C)C(=O)O)C(C)C [3A] (H-DWLKAFYDKVAEKLKEAFPDWLKAAYDKVAEKAKEAA-OH; N-terminus and C-terminus assumed)
hemolysis / cytotoxicity to red blood cells (in words) (red blood cells): moderate degree of hemolysis

CC(C)C[C@H](NC(=O)[C@H](Cc1c[nH]c2ccccc12)NC(=O)[C@H](CC(=O)O)NC(=O)[C@@H]1CCCN1C(=O)[C@H](Cc1ccccc1)NC(=O)[C@H](C)NC(=O)[C@H](CCC(=O)O)NC(=O)[C@H](CCCCN)NC(=O)[C@H](CC(C)C)NC(=O)[C@H](CCCCN)NC(=O)[C@H](CCC(=O)O)NC(=O)[C@H](C)NC(=O)[C@@H](NC(=O)[C@H](CCCCN)NC(=O)[C@H](CC(=O)O)NC(=O)[C@H](Cc1ccc(O)cc1)NC(=O)[C@H](Cc1ccccc1)NC(=O)[C@H](C)NC(=O)[C@H](CCCCN)NC(=O)[C@H](CC(C)C)NC(=O)[C@H](Cc1c[nH]c2ccccc12)NC(=O)[C@@H](N)CC(=O)O)C(C)C)C(=O)N[C@@H](CCCCN)C(=O)N[C@@H](C)C(=O)N[C@@H](C)C(=O)N[C@@H](Cc1ccc(O)cc1)C(=O)N[C@@H](CC(=O)O)C(=O)N[C@@H](CCCCN)C(=O)N[C@@H](C)C(=O)N[C@@H](C)C(=O)N[C@@H](CCC(=O)O)C(=O)N[C@@H](CCCCN)C(=O)N[C@@H](C)C(=O)N[C@@H](CCCCN)C(=O)N[C@@H](CCC(=O)O)C(=O)N[C@@H](C)C(=O)N[C@@H](C)C(=O)O [4A] (H-DWLKAFYDKVAEKLKEAFPDWLKAAYDKAAEKAKEAA-OH; N-terminus and C-terminus assumed)
hemolysis / cytotoxicity to red blood cells (in words) (red blood cells): no appreciable hemolysis

CC(C)C[C@H](NC(=O)[C@H](CCCCN)NC(=O)[C@H](CCC(=O)O)NC(=O)[C@H](C)NC(=O)[C@@H](NC(=O)[C@H](CCCCN)NC(=O)[C@H](CC(=O)O)NC(=O)[C@H](Cc1ccc(O)cc1)NC(=O)[C@H](Cc1ccccc1)NC(=O)[C@H](C)NC(=O)[C@H](CCCCN)NC(=O)[C@H](CC(C)C)NC(=O)[C@H](Cc1c[nH]c2ccccc12)NC(=O)[C@@H](N)CC(=O)O)C(C)C)C(=O)N[C@@H](CCCCN)C(=O)N[C@@H](CCC(=O)O)C(=O)N[C@@H](C)C(=O)N[C@@H](Cc1ccccc1)C(=O)N1CCC[C@H]1C(=O)N[C@@H](CC(=O)O)C(=O)N[C@@H](Cc1c[nH]c2ccccc12)C(=O)N[C@@H](C)C(=O)N[C@@H](CCCCN)C(=O)N[C@@H](C)C(=O)N[C@@H](C)C(=O)N[C@@H](Cc1ccc(O)cc1)C(=O)N[C@@H](CC(=O)O)C(=O)N[C@@H](CCCCN)C(=O)N[C@@H](C)C(=O)N[C@@H](C)C(=O)N[C@@H](CCC(=O)O)C(=O)N[C@@H](CCCCN)C(=O)N[C@@H](C)C(=O)N[C@@H](CCCCN)C(=O)N[C@@H](CCC(=O)O)C(=O)N[C@@H](C)C(=O)N[C@@H](C)C(=O)O [5A] (H-DWLKAFYDKVAEKLKEAFPDWAKAAYDKAAEKAKEAA-OH; N-terminus and C-terminus assumed)
hemolysis / cytotoxicity to red blood cells (in words) (red blood cells): no appreciable hemolysis

C[C@H](CCC(=O)NCCC[N+](C)(C)CCCS(=O)(=O)[O-])[C@H]1CC[C@H]2[C@@H]3[C@H](O)C[C@@H]4C[C@H](O)CC[C@]4(C)[C@H]3C[C@H](O)[C@]12C [CHAPS]
cholesterol efflux to other detergents compared with taurodeoxycholate [1]: Nearly identical results

C[C@H](CCC(=O)NCCS(=O)(=O)O)[C@H]1CC[C@H]2[C@@H]3CC[C@@H]4C[C@H](O)CC[C@]4(C)[C@H]3C[C@H](O)[C@]12C [taurodeoxycholate, reference compound]
cholesterol efflux from control cells to detergent ([2]; 0.02%, 1 hour): Approximately the same amount of cholesterol efflux
effect on cell morphology [3]: did not alter the morphology of the cells
cholesterol efflux from ABCA1 cells to detergent after fixation ([1]; 0.02%, 1 hour, after fixation with 3% paraformaldehyde): slightly increased after fixation
cholesterol efflux from ABCA1 cells to detergent ([1]; 0.02%, 1 hour, before fixation): small amount of cholesterol efflux

DWLKAFYDKVAEKLKEAFPDWLKAFYDKVA EKLKEAF [37pA, reference compound]
cholesterol and phospholipid efflux from control cells (in words) [2]: able to mediate cholesterol efflux from a control HeLa cell line
cholesterol and phospholipid efflux from ABCA1 cells (in words) [1]: promoted ABCA1-mediated cholesterol efflux

NP-40
cholesterol efflux to other detergents compared with taurodeoxycholate [1]: Nearly identical results

RMRITERDDFRGQMSEITDDCPSLQDRFHLTEVHSLRVLEGS (Gamma crystalline peptide.) [contains two non-amphipathic alpha helices of approximately the same length as the helices on 37pA, reference compound]
cholesterol and phospholipid efflux from control cells (in words) [2]: completely ineffective
cholesterol and phospholipid efflux from ABCA1 cells (in words) [1]: completely ineffective
